Columns and labels:
[1] = tested on: voltage-dependent sodium channels expressed in DUM neurons; assay: Whole-cell patch-clamp of voltage-dependent inward sodium current in isolated DUM neuron cell bodies; format: cell-based, cockroaches (Periplaneta Americana)
Description: Experiments were performed on dorsal unpaired median (DUM) neuron cell bodies (Grolleau and Lapied (2000), J. Exp. Biol., 203, 1633-1648) isolated from the dorsal midline of the terminal abdominal ganglion of adult male cockroaches (Periplaneta Americana) taken from a stock colony, maintained at 29° C. with a photoperiod of 12 hours light:12 hours dark.
Adult male cockroaches were immobilised dorsal-side up on a dissection dish. The dorsal cuticle, gut and some dorso-longitudinal muscles were removed, to allow access to the ventral nerve cord. The abdominal nerve cord and its terminal abdominal ganglion (TAG), carefully dissected under a binocular microscope, were placed in normal saline. Isolation of adult DUM neuron cell bodies was performed under sterile conditions using enzymatic digestion and mechanical dissociation of the median part of the TAG (Lapied et al. (1989), J. Exp. Biol., 144, 535-549).
Ganglia were excised and incubated for 35 min at 29° C. in cockroach saline supplemented with 1.5 mg/ml collagenase (type I, Worthington, Lakewood, N.J.). After thoroughly washing off the enzyme, ganglia were mechanically dissociated by gentle repeated suctions through fire-polished Pasteur pipettes. Then, the isolated DUM neuron cell bodies were maintained at 29° C. for 24 hours before experiments are carried out.
Isolated neuronal cell bodies were used for electrophysiological studies. […] A total number of six different isolated cell bodies (six replicates) were used for each experiment.
Deltamethrin and DCJW (IN-JT333), stock solutions (100 mM and 10 mM, respectively) were prepared in dimethylsulphoxide (DMSO, Sigma Chemical, France). Final dilutions contained a maximum of 0.1% DMSO.
Deltamethrin and DCJW, prepared in cockroach saline, were applied separately by a gravity perfusion system onto isolated cell body maintained in short-term culture.
Experiments were carried out at room temperature (20° C.).
The patch-clamp technique in the whole-cell recording configuration (voltage-clamp condition) was used to record voltage-dependent inward sodium current. […]
For each time point, relative sodium current amplitudes are expressed as means±standard errors of the mean (SEM) (table 2). […]
In addition to the concomitant application of deltamethrin and DCJW, the effect of the mixture DCJW (10^−7M) and deltamethrin (10^−5 M) on DUM neuron was assessed after a pre-treatment of the cell body by deltamethrin (10^−5 M) for 5 minutes. […]
As in Example 2, for each time point, relative sodium current amplitudes were expressed as means±standard errors of the mean (SEM). […]

[2] = tested on: Rhipicephalus sanguineus ticks; assay: Tick control on dogs (experimental infestation, tick counts and efficacy); format: in vivo; set-up: Tick efficacies, arithmetic mean / Tick efficacies, geometric mean: concentration or dose not given beside the values
Description: The SCALIBOR® collar was administered to dogs according to the instructions in the Product leaflet. The topical formulation of indoxacarb was administered to dogs in Groups 3 and 4 according to the dose table below:
A 4% deltamethrin-impregnated collar (SCALIBOR®, Merck Animal Health) is used to protect dogs from the bites of sand flies (Phlebotomus sp.), mosquitoes (Culex sp.), and ticks for up to six months with high persistent efficacy. Immediate efficacy of the collar against fleas is known to be inadequate.
The study was conducted on four groups of eight dogs each. • Group 1: Negative control. • Group 2: Dogs were fitted with the Scalibor® collar on Day 0. • Group 3: Dogs were treated with a topical formulation of indoxacarb on Days 0, 30, 60, 90, 120, 150, and 180 (once a month for 6 months). • Group 4: Dogs were fitted with the Scalibor® collar (4% deltamethrin) on Day 0 and treated with a topical formulation of indoxacarb on Days 0, 30, 60, 90, 120, 150, and 180 (once a month for 6 months). Dogs were experimentally infested with 100 fleas and 50 ticks two days before treatment (Day 0) and then on various days throughout the study.
Efficacy against ticks and fleas was calculated for each treatment group at each assessment day according to the formulas given below. Due to the fact that small and even zero tick and flea counts were recorded, it was expected that the tick and flea counts would not follow a normal distribution. It was therefore decided that the primary efficacy calculations would be based on geometric means rather than arithmetic means. The calculations were based on the geometric means of the tick or flea (count+1) data. One (1) was subsequently subtracted from the result to obtain a meaningful value for the geometric mean of each treatment group. Efficacy calculations based on arithmetic means were, however, also reported on.
Percent efficacy against ticks was calculated as follows:
Efficacy(%)=100×(Gmc−Gmt)/Gmc, where:
Gmc=Geometric or arithmetic mean number of live ticks (categories 1-3) on dogs in the control group (Group 1) at a specific time point. Gmt=Geometric or arithmetic mean number of live ticks (categories 1-3; immediate Day+2 efficacy) and dead attached engorged ticks (category 6; residual >Day+2 efficacies) on dogs in the treatment groups (Groups 2, 3 & 4) at a specific time point.

[3] = DCJW 10^-7 M alone, after 20 minutes
[4] = Day +2 (immediate), vs negative control
[5] = Day +2, count ~48 h after treatment or infestation
[6] = Day +16, count ~48 h after infestation
[7] = Day +30, count ~48 h after infestation
[8] = Day +44, count ~48 h after infestation
[9] = Day +72, count ~48 h after infestation
[10] = Day +100, count ~48 h after infestation
[11] = Day +128, count ~48 h after infestation
[12] = Day +156, count ~48 h after infestation
[13] = Day +170, count ~48 h after infestation
[14] = Day +184, count ~48 h after infestation

`N#Cc1ccc(CC(=NNC(=O)Nc2ccc(OC(F)(F)F)cc2)c2cccc(C(F)(F)F)c2)cc1` (mixture of isomers) [metaflumizone E/Z, (EZ)-2012-(4-cyanophenyl)-1-(a,a,a-trifluoro-mtolypethylidene]-4 (trifluoromethoxy) carbanilohydrazide] was tested, and the “Effect on the sodium current amplitude” value ([1]; bath application at different concentrations (10^-10 to 10^-5 M), alone) was “produced a reduction of the sodium current amplitude” and the “Dose dependence of the reduction of sodium current amplitude” value ([1]; different concentrations (10^-10 to 10^-5 M), alone) was “not dose-dependent”.
In the case of `COC(=O)C12Cc3cc(Cl)ccc3C1=NN(C(=O)Nc1ccc(OC(F)(F)F)cc1)CO2` (stereo not shown) [DCJW, methyl 7-chloro-2,5-dihydro-2-[[[4-(trifluoromethoxy)phenyl]amino]carbonyl]indeno-[1,2-e][1,3,4]oxadiazine-4a(3H)-carboxylate], the “Percentage of inhibition of the sodium current amplitude” value [1, 3] is reported as 40.7% and the “Sodium current amplitude (relative to control current 100%)” value [1, 3] is reported as 59.3%.
`CC1(C)[C@H](C(=O)O[C@H](C#N)c2cccc(Oc3ccccc3)c2)[C@@H]1C=C(Br)Br` [deltamethrin, (S)-α-Cyano-3-phenoxybenzyl-(1R,3R)-3-(2,2-dibromovinyl)-2,2-dimethylcyclopropanecarboxylate] was tested, and the “Tick efficacies, geometric mean” value [2, 4] was 76.9%.
For `COC(=O)N(C(=O)N1CO[C@@]2(C(=O)OC)Cc3cc(Cl)ccc3C2=N1)c1ccc(OC(F)(F)F)cc1` [indoxacarb, (5)-methyl 7-chloro-2,5-dihydro-2-[[(methoxycarbonyl) [4-(trifluoromethoxy)phenyl]amino]carbonyl]indeno[1,2-e][1,3,4]oxadiazine-4a(3H)-carboxylate], the “Tick efficacies, arithmetic mean” value [2, 4] was 13.3%, the “Tick efficacies, geometric mean” value [2, 4] was 15.5% and the “Tick counts, arithmetic mean” value [2, 5] was 18.8. The “Tick counts, geometric mean” value [2, 5] was 18.1^4, the “Immediate or persistent effectiveness against R. sanguineus ticks” value ([2]; Day +2 to Day 184) was “No immediate or persistent effectiveness” and the “Tick counts, arithmetic mean” value [2, 6] was 13.8. The “Tick counts, geometric mean” value [2, 6] was 12.1^4, the “Tick efficacies, arithmetic mean” value ([2]; Day +16, vs negative control) was 34.3% and the “Tick efficacies, geometric mean” value ([2]; Day +16, vs negative control) was 37.4%. The “Tick counts, arithmetic mean” value [2, 7] was 14.0, the “Tick counts, geometric mean” value [2, 7] was 9.8^2,4 and the “Tick efficacies, arithmetic mean” value ([2]; Day +30, vs negative control) was 42.0%. The “Tick efficacies, geometric mean” value ([2]; Day +30, vs negative control) was 58.7%, the “Tick counts, arithmetic mean” value [2, 8] was 18.4 and the “Tick counts, geometric mean” value [2, 8] was 18.0^4. The “Tick efficacies, arithmetic mean” value ([2]; Day +44, vs negative control) was 25.0%, the “Tick efficacies, geometric mean” value ([2]; Day +44, vs negative control) was 25.8% and the “Tick counts, arithmetic mean” value [2, 9] was 24.5. The “Tick counts, geometric mean” value [2, 9] was 23.5^4, the “Tick efficacies, arithmetic mean” value ([2]; Day +72, vs negative control) was 20.0% and the “Tick efficacies, geometric mean” value ([2]; Day +72, vs negative control) was 20.9%. The “Tick counts, arithmetic mean” value [2, 10] was 18.3, the “Tick counts, geometric mean” value [2, 10] was 16.0^4 and the “Tick efficacies, arithmetic mean” value ([2]; Day +100, vs negative control) was 35.4%. For the same compound, the “Tick efficacies, geometric mean” value ([2]; Day +100, vs negative control) was 40.9%, the “Tick counts, arithmetic mean” value [2, 11] was 24.5 and the “Tick counts, geometric mean” value [2, 11] was 22.6^4. For the same compound, the “Tick efficacies, arithmetic mean” value ([2]; Day +128, vs negative control) was 12.1%, the “Tick efficacies, geometric mean” value ([2]; Day +128, vs negative control) was 16.0% and the “Tick counts, arithmetic mean” value [2, 12] was 25.4. The “Tick counts, geometric mean” value [2, 12] was 25.0^4, the “Tick efficacies, arithmetic mean” value ([2]; Day +156, vs negative control) was 12.1% and the “Tick efficacies, geometric mean” value ([2]; Day +156, vs negative control) was 12.2%. The “Tick counts, arithmetic mean” value [2, 13] was 21.1, the “Tick counts, geometric mean” value [2, 13] was 19.9^4 and the “Tick efficacies, arithmetic mean” value ([2]; Day +170, vs negative control) was 18.4%. For the same compound, the “Tick efficacies, geometric mean” value ([2]; Day +170, vs negative control) was 20.0%, the “Tick counts, arithmetic mean” value [2, 14] was 18.3 and the “Tick counts, geometric mean” value [2, 14] was 17.1^4. For the same compound, the “Tick efficacies, arithmetic mean” value ([2]; Day +184, vs negative control) was 25.1% and the “Tick efficacies, geometric mean” value ([2]; Day +184, vs negative control) was 28.3%.
